How the values were obtained:
Assay in all cases: Bliss excess, mean over the matrix (fraction); higher = more synergy
[1] = test system: CHSA8926 (Chondrosarcoma)
How it was run: (§1)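 After 24 hours at 37°C and 5% CO2 in 1536-well plates, cells in DMEM/F12 or RPMI plus 10% FBS received two-drug dose matrices for 72 hours. Viability came from CellTiter-Glo 2.0 luminescence and was scaled as inhibition, anchored at 0 by vehicle wells and at 1 by blank wells. Combination Emax is taken as the second-highest inhibition in the matrix, and Bliss excess as the observed combination effect less EA + EB − EA·EB, with EA and EB the single-agent effects.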

[2] = test system: CW-2 (Colorectal Carcinoma)
How it was run: as §1

G-361 (Melanoma) = test system: G-361 (Melanoma)
How it was run: as §1

[3] = test system: H9 (T-Cell Non-Hodgkin's Lymphoma)
How it was run: as §1

[4] = test system: HCC1187 (Breast Carcinoma)
How it was run: as §1

[5] = test system: JHH-4 (Hepatocellular Carcinoma)
How it was run: as §1

[6] = test system: KP-3 (Pancreatic Carcinoma)
How it was run: as §1

[7] = test system: KYSE-270 (Esophageal Squamous Cell Carcinoma)
How it was run: as §1

[8] = test system: MOLM-13 (Acute Myeloid Leukemia)
How it was run: as §1

[9] = test system: NCCIT (Other Solid Carcinomas)
How it was run: as §1

NCI-H2731 (Mesothelioma) = test system: NCI-H2731 (Mesothelioma)
How it was run: as §1

[10] = test system: NCI-H3122 (Lung Adenocarcinoma)
How it was run: as §1

[11] = test system: NCI-H526 (Small Cell Lung Carcinoma)
How it was run: as §1

[12] = test system: RPMI-8226 (Plasma Cell Myeloma)
How it was run: as §1

[13] = test system: SK-GT-2 (Gastric Carcinoma)
How it was run: as §1

[14] = test system: SK-GT-4 (Esophageal Adenocarcinoma)
How it was run: as §1

[15] = test system: ST486 (Burkitt's Lymphoma)
How it was run: as §1

[16] = test system: SU-DHL-5 (B-Cell Non-Hodgkin's Lymphoma)
How it was run: as §1

[17] = test system: T-T (Esophageal Squamous Cell Carcinoma)
How it was run: as §1

| SMILES | Bliss excess [1] | Bliss excess [2] | Bliss excess (G-361 (Melanoma)) | Bliss excess [3] | Bliss excess [4] | Bliss excess [5] | Bliss excess [6] | Bliss excess [7] | Bliss excess [8] | Bliss excess [9] | Bliss excess (NCI-H2731 (Mesothelioma)) | Bliss excess [10] | Bliss excess [11] | Bliss excess [12] | Bliss excess [13] | Bliss excess [14] | Bliss excess [15] | Bliss excess [16] | Bliss excess [17] |
| --- | --- | --- | --- | --- | --- | --- | --- | --- | --- | --- | --- | --- | --- | --- | --- | --- | --- | --- | --- |
| CS(=O)(=O)CCNCc1ccc(-c2ccc3ncnc(Nc4ccc(OCc5cccc(F)c5)c(Cl)c4)c3c2)o1 [Lapatinib] + C[C@@H](Oc1cc(-c2cnn(C3CCNCC3)c2)cnc1N)c1c(Cl)ccc(F)c1Cl [Crizotinib] (first compound max 10 µM, 7x7, partner max 10 µM) | -0.0231 | -0.0146 | -0.0416 | -0.0249 | -0.0156 | 0.0041 | -0.0234 | -0.0054 | 0.0308 | 0.0045 | -0.0456 | 0.0001 | 0.0069 | -0.0127 | -0.0154 | -0.0211 | -0.0366 | -0.0186 | -0.0172 |
| CCc1c2c(nc3ccc(O)cc13)-c1cc3c(c(=O)n1C2)COC(=O)[C@]3(O)CC [SN-38] + O=C(c1cc(Cc2n[nH]c(=O)c3ccccc23)ccc1F)N1CCN(C(=O)C2CC2)CC1 [Olaparib] (first compound max 0.3 µM, 7x7, partner max 10 µM) | 0.0247 | 0.0293 | 0.0322 | 0.111 | 0.0419 |  | -0.0338 | 0.0159 |  | 0.0062 | 0.0324 | 0.0685 | 0.0278 |  |  | 0.0257 | 0.0826 | 0.065 | -0.0243 |
| NC1(C(=O)N[C@@H](CCO)c2ccc(Cl)cc2)CCN(c2ncnc3[nH]ccc23)CC1 [Capivasertib] + CCN(CCO)CCCOc1ccc2c(Nc3cc(CC(=O)Nc4cccc(F)c4)[nH]n3)ncnc2c1 [AZD2811] (first compound max 10 µM, 7x7, partner max 1 µM) | -0.0687 | -0.0348 | 0.0426 | -0.0361 | -0.0597 | -0.0088 | -0.03 | -0.0289 | -0.0086 | 0.0475 | 0.0438 | -0.0428 | -0.0052 | -0.0101 | -0.0239 | -0.016 | -0.0396 | -0.0225 | 0.013 |
| CC(=O)c1c(C)c2cnc(Nc3ccc(N4CCNCC4)cn3)nc2n(C2CCCC2)c1=O [Palbociclib] + Cc1c2c(nn1C)CSCc1cc(n(C)n1)CSc1cc(c3ccccc3c1)OCCCc1c(C(=O)O)n(C)c3c-2c(Cl)ccc13 [AZD5991] (first compound max 10 µM, 7x7, partner max 1 µM) | -0.0807 | -0.0111 | -0.0464 | -0.0795 | 0.0023 | -0.0518 | -0.0436 | -0.0804 | -0.0314 | -0.0538 | -0.0484 | -0.0217 | 0.0026 | -0.0191 | -0.021 | -0.0645 | -0.0457 | -0.0071 | 0.0028 |
| CS(=O)(=O)CCNCc1ccc(-c2ccc3ncnc(Nc4ccc(OCc5cccc(F)c5)c(Cl)c4)c3c2)o1 [Lapatinib] + Cn1cnc2c(F)c(Nc3ccc(Br)cc3Cl)c(C(=O)NOCCO)cc21 [Selumetinib] (first compound max 10 µM, 7x7, partner max 10 µM) |  | 0.003 |  |  |  |  | 0.0488 | -0.0187 |  | -0.0596 | -0.012 | 0.0083 | 0.0154 |  |  | 0.0369 | 0.0111 |  | 0.0514 |
| CC(=O)c1c(C)c2cnc(Nc3ccc(N4CCNCC4)cn3)nc2n(C2CCCC2)c1=O [Palbociclib] + Cn1cnc2c(F)c(Nc3ccc(Br)cc3Cl)c(C(=O)NOCCO)cc21 [Selumetinib] (first compound max 10 µM, 7x7, partner max 10 µM) | -0.0697 | 0.0099 | -0.0785 | -0.0868 | -0.0142 | -0.0336 | -0.0328 | -0.0512 | 0.0262 | -0.0291 | -0.0341 | -0.0306 | -0.0213 | 0.142 | -0.0175 | -0.0126 | 0.151 | 0.101 | 0.0252 |
| Cc1nc(Nc2ncc(C(=O)Nc3c(C)cccc3Cl)s2)cc(N2CCN(CCO)CC2)n1 [Dasatinib] + CC(=O)Nc1cccc(-n2c(=O)n(C3CC3)c(=O)c3c(Nc4ccc(I)cc4F)n(C)c(=O)c(C)c32)c1 [Trametinib] (first compound max 2 µM, 7x7, partner max 1 µM) | -0.194 | 0.0129 | -0.0282 | -0.193 | -0.0367 | -0.116 | 0.0304 | -0.0142 | 0.0284 | -0.0842 | 0.0298 | -0.0651 | -0.0323 | 0.0121 | -0.0013 | -0.0415 | -0.0987 | 0.0159 | 0.0381 |

Source: the supplement of paper PMC11061612
